# Laboratory results taken from PMC8315004, “Discovery of Small-Molecule Inhibitors of SARS-CoV-2 Proteins Using a Computational and Experimental Pipeline” (Frontiers in Molecular Biosciences, 2021).
# Counter-ions that a name gives are not always drawn.
# Target: SARS-CoV-2 M^pro (Severe acute respiratory syndrome coronavirus 2, UniProt P0DTD1)
# Assay: biochemical
# Set-up: inhibition: dose or concentration left out as unconfirmed
# Details: 100 µM
row,Compound,Normalized Percent FRET inhibition
1,Cc1nc2n(c(=O)c1CCN1CCC(c3noc4cc(F)ccc34)CC1)CCCC2 [Risperidal],-1.672

# Same assay, conditions: initial screen, 100 μM of drug, Table S4
row,Compound,Normalized Percent FRET inhibition
1,CCc1c2c(nc3ccc(OC(=O)N4CCC(N5CCCCC5)CC4)cc13)-c1cc3c(c(=O)n1C2)COC(=O)[C@]3(O)CC.Cl.O.O.O [Irinotecan hydrochloride trihydrate],-2.22%
2,Ginkgolide C,-0.7419%

# Same assay, conditions: initial screen, Table S4; read-out: Normalized Percent FRET inhibition
row,Compound,inhibition
1,C[C@@H](c1nc(-c2ccc(C#N)cc2)cs1)[C@](O)(Cn1cncn1)c1cc(F)ccc1F [Isavuconazole],-0.886%
2,C[C@@H]1O[C@@H](OC[C@H]2O[C@@H](Oc3c(-c4ccc(O)c(O)c4)oc4cc(O)cc(O)c4c3=O)[C@H](O)[C@@H](O)[C@@H]2O)[C@H](O)[C@H](O)[C@H]1O [Rutin],-0.554%
3,CC1(C)CCC(CN2CCN(c3ccc(C(=O)NS(=O)(=O)c4ccc(NCC5CCOCC5)c([N+](=O)[O-])c4)c(Oc4cnc5[nH]ccc5c4)c3)CC2)=C(c2ccc(Cl)cc2)C1 [ABT199],6.27%
4,C[C@H]1O[C@@H](O[C@H]2[C@@H](O)C[C@H](O[C@H]3[C@@H](O)C[C@H](O[C@H]4CC[C@@]5(C)[C@H](CC[C@@H]6[C@@H]5CC[C@]5(C)[C@@H](C7=CC(=O)OC7)CC[C@]65O)C4)O[C@@H]3C)O[C@@H]2C)C[C@H](O)[C@@H]1O [Digitoxin],0.197%
5,CC1(C)O[C@@H]2C[C@H]3[C@@H]4C[C@H](F)C5=CC(=O)C=C[C@]5(C)[C@@]4(F)[C@@H](O)C[C@]3(C)[C@]2(C(=O)CO)O1 [Fluocinolone acetonide],0.0249%
6,NS(=O)(=O)c1cc2c(cc1C(F)(F)F)NC(Cc1ccccc1)NS2(=O)=O (stereo not drawn) [Bendroflumethiazide],11.6%
7,Cc1c(O)cccc1C(=O)N[C@@H](CSc1ccccc1)[C@H](O)CN1C[C@H]2CCCC[C@H]2C[C@H]1C(=O)NC(C)(C)C [Nelfinavir Mesylate],30.8%
8,C=CC(=O)Nc1cccc(Oc2nc(Nc3ccc(N4CCN(C)CC4)cc3)nc3ccsc23)c1 [Olmutinib],-0.795%
9,CO[C@@]1(NC(=O)C2SC(=C(C(N)=O)C(=O)O)S2)C(=O)N2C(C(=O)O)=C(CSc3nnnn3C)CS[C@@H]21 (stereo partly drawn) [Cefotetan],2.14%
10,COc1cc2nc(N3CCN(C(=O)C4COc5ccccc5O4)CC3)nc(N)c2cc1OC (stereo not drawn) [Doxazosin mesylate],0.919%
11,CC#CCn1c(N2CCC[C@@H](N)C2)nc2c1c(=O)n(Cc1nc(C)c3ccccc3n1)c(=O)n2C [Linagliptin],8.28%
12,COc1cc2nccc(Oc3ccc(NC(=O)C4(C(=O)Nc5ccc(F)cc5)CC4)cc3)c2cc1OC [Cabozantinib Malate],0.386%
13,CN(c1nccc(=O)[nH]1)C1CCN(c2nc3ccccc3n2Cc2ccc(F)cc2)CC1 [Mizolastine],-0.317%
14,C=CC(=O)N1CCC[C@@H](n2nc(-c3ccc(Oc4ccccc4)cc3)c3c(N)ncnc32)C1 [Ibrutinib],-1.91%
15,C#C[C@]1(O)CC[C@H]2[C@@H]3CCc4cc(O)ccc4[C@H]3CC[C@@]21C [Ethynyl estradiol],-3.17%
16,COc1ccc(-c2cc(=O)c3c(O)cc(O[C@@H]4O[C@H](CO[C@@H]5O[C@@H](C)[C@H](O)[C@@H](O)[C@H]5O)[C@@H](O)[C@H](O)[C@H]4O)cc3o2)cc1O [Diosmin],-0.378%
17,CC(C)=CCC[C@](C)(O[C@@H]1O[C@H](CO)[C@@H](O)[C@H](O)[C@H]1O)[C@H]1CC[C@]2(C)[C@@H]1[C@H](O)C[C@@H]1[C@@]3(C)CC[C@H](O)C(C)(C)[C@@H]3[C@@H](O[C@@H]3O[C@H](CO)[C@@H](O)[C@H](O)[C@H]3O)C[C@]12C [Ginsenoside Rg1],4.19%
18,COC(=O)N[C@H](C(=O)N[C@@H](Cc1ccccc1)[C@@H](O)CN(Cc1ccc(-c2ccccn2)cc1)NC(=O)[C@@H](NC(=O)OC)C(C)(C)C)C(C)(C)C [Atazanavir],-1.97%
